Laboratory results taken from the NIST ThermoML archive (doi:10.1021/je800110r).

Details: 293.15 K, Liquid, Vibrating tube method

CCCCCCCCCC [decane]
Details	mass density [kg/m3]
22074 kPa	745.5
22091 kPa	745.6
22110 kPa	745.5
22128 kPa	745.6
22143 kPa	745.7
22164 kPa	745.5
22179 kPa	745.6
22199 kPa	745.6
22217 kPa	745.7
22235 kPa	745.7
22253 kPa	745.5
22275 kPa	745.8
22300 kPa	745.7
22318 kPa	745.7
22336 kPa	745.7
22358 kPa	745.8
22373 kPa	745.8
22397 kPa	745.8
22412 kPa	745.8
22434 kPa	745.7
22452 kPa	745.7
22473 kPa	745.8
22498 kPa	745.9
22523 kPa	745.9
22542 kPa	745.8
22564 kPa	746
22583 kPa	745.9
22605 kPa	745.9
22624 kPa	745.9
22648 kPa	745.8
22667 kPa	745.9
22689 kPa	746
22711 kPa	745.9
22727 kPa	746
22746 kPa	746
22771 kPa	746
22787 kPa	746
22807 kPa	746
22830 kPa	746.1
22852 kPa	746.1
22866 kPa	746
22882 kPa	746.2
22899 kPa	746.2
22915 kPa	746.2
22934 kPa	746.2
22948 kPa	746.2
22970 kPa	746.2
22994 kPa	746.1
23011 kPa	746.2
23030 kPa	746.2
23047 kPa	746.1
23069 kPa	746.1
23086 kPa	746.1
23108 kPa	746.2
23127 kPa	746.3
23144 kPa	746.2
23167 kPa	746.2
23186 kPa	746.2
23206 kPa	746.4
23223 kPa	746.3
23246 kPa	746.3
23265 kPa	746.4
23285 kPa	746.4
23308 kPa	746.2
23328 kPa	746.4
23345 kPa	746.3
23362 kPa	746.3
23382 kPa	746.3
23402 kPa	746.3
23416 kPa	746.3
23434 kPa	746.3
23454 kPa	746.4
23472 kPa	746.4
23489 kPa	746.5
23509 kPa	746.5
23529 kPa	746.5
23547 kPa	746.5
23565 kPa	746.5
23582 kPa	746.5
23605 kPa	746.6
23632 kPa	746.7
23647 kPa	746.6
23668 kPa	746.5
23687 kPa	746.7
23704 kPa	746.6
23728 kPa	746.7
23755 kPa	746.6
23773 kPa	746.6
23790 kPa	746.7
23811 kPa	746.7
23826 kPa	746.6
23847 kPa	746.7
23875 kPa	746.7
23896 kPa	746.8
23917 kPa	746.8
23940 kPa	746.7
23964 kPa	746.9
23985 kPa	746.9
24004 kPa	746.7
24022 kPa	747
24046 kPa	746.8
24065 kPa	746.8
24089 kPa	746.8
24108 kPa	746.9
24126 kPa	746.9
24148 kPa	746.9
24170 kPa	746.9
24194 kPa	746.9
24219 kPa	747
24237 kPa	747
24256 kPa	746.9
24284 kPa	747
24309 kPa	747
24334 kPa	747
24356 kPa	747.1
24374 kPa	747
24393 kPa	747
24416 kPa	747
24435 kPa	747.1
24454 kPa	747.1
24479 kPa	747.1
24498 kPa	747.1
24526 kPa	747.1
24545 kPa	747.1
24574 kPa	747.2
24590 kPa	747.2
24613 kPa	747.1
24632 kPa	747.2
24655 kPa	747.3
24678 kPa	747.2
24700 kPa	747.2
24720 kPa	747.2
24739 kPa	747.2
24759 kPa	747.4
24779 kPa	747.4
24808 kPa	747.3
24834 kPa	747.2
24857 kPa	747.4
24883 kPa	747.4
24899 kPa	747.3
24926 kPa	747.4
24943 kPa	747.5
24972 kPa	747.3
24999 kPa	747.4
25019 kPa	747.5
25048 kPa	747.5
25068 kPa	747.5
25092 kPa	747.5
25116 kPa	747.5
25139 kPa	747.5
25163 kPa	747.5
25187 kPa	747.6
25218 kPa	747.7
25238 kPa	747.6
25269 kPa	747.5
25300 kPa	747.7
25320 kPa	747.7
25345 kPa	747.6
25370 kPa	747.6
25391 kPa	747.7
25419 kPa	747.6
25442 kPa	747.7
25468 kPa	747.8
25493 kPa	747.7
25512 kPa	747.6
25535 kPa	747.8
25557 kPa	747.8
25577 kPa	747.8
25599 kPa	747.7
25615 kPa	747.7
25638 kPa	747.9
25657 kPa	747.8
25680 kPa	747.8
25699 kPa	747.8
25720 kPa	748
25746 kPa	747.9
25766 kPa	747.9
25788 kPa	747.9
25808 kPa	747.9
25835 kPa	748
25861 kPa	748
25887 kPa	748
25907 kPa	748.1
25933 kPa	747.9
25959 kPa	748
25986 kPa	748
26006 kPa	748.1
26023 kPa	748
26040 kPa	748.1
26070 kPa	748.1
26093 kPa	748.1
26117 kPa	748.1
26145 kPa	748.1
26165 kPa	748.2
26192 kPa	748.1
26216 kPa	748.1
26243 kPa	748.1
26263 kPa	748.4
26291 kPa	748.2
26315 kPa	748.2
26335 kPa	748.3
26352 kPa	748.3
26370 kPa	748.3
26390 kPa	748.4
26408 kPa	748.3
26432 kPa	748.3
26453 kPa	748.3
26483 kPa	748.4
26516 kPa	748.4
26537 kPa	748.4
26568 kPa	748.4
26586 kPa	748.5
26607 kPa	748.4
26631 kPa	748.5
26652 kPa	748.5
26677 kPa	748.4
26694 kPa	748.5
26719 kPa	748.4
26741 kPa	748.5
26769 kPa	748.5
26795 kPa	748.5
26816 kPa	748.5
26841 kPa	748.6
26863 kPa	748.5
26885 kPa	748.6
26913 kPa	748.7
26935 kPa	748.7
26964 kPa	748.7
26989 kPa	748.6
27011 kPa	748.7
27036 kPa	748.7
27054 kPa	748.6
27077 kPa	748.7
27103 kPa	748.7
27128 kPa	748.8
27154 kPa	748.7
27173 kPa	748.7
27202 kPa	748.8
27232 kPa	748.8
27257 kPa	748.8
27280 kPa	748.8
27309 kPa	748.8
27328 kPa	748.8
27362 kPa	749
27385 kPa	748.9
27419 kPa	748.9
27438 kPa	749
27475 kPa	749
27501 kPa	749
27523 kPa	749
27557 kPa	749.1
27579 kPa	749.1
27609 kPa	749.1
27632 kPa	749.1
27667 kPa	749.1
27690 kPa	749.2
27713 kPa	749.1
27748 kPa	749.3
27770 kPa	749.1
27805 kPa	749.2
27827 kPa	749.1
27850 kPa	749.2
27877 kPa	749.2
27896 kPa	749.1
27924 kPa	749.3
27959 kPa	749.2
27983 kPa	749.3
28006 kPa	749.4
28033 kPa	749.3
28056 kPa	749.4
28076 kPa	749.4
28099 kPa	749.3
28123 kPa	749.3
